Data from patent US11136351B2 (priority 2016, dated 2021).
No end group written: not given here.

How the values were obtained:
Type in all cases: cell-based
[1] = tested on: HVA calcium channels in rat DRG neurons; conditions: for rat HVA Ca^2+ channel I/Icontrol ± SEM (n): 1 μM
[2] = biological target: T1, human α9α10 nAChR (Homo sapiens, UniProt Q9GZZ6+Q9UGM1); conditions: 3 μM
T1 construct: expressed in transfected cells; host or cells: Xenopus laevis oocytes

[3] = biological target: T2, human α7 nAChR (Homo sapiens, UniProt P36544); conditions: 3 μM
T2 construct: expressed in transfected cells; host or cells: Xenopus laevis oocytes

T1 sequence (Q9UGM1 26-479 limits assumed): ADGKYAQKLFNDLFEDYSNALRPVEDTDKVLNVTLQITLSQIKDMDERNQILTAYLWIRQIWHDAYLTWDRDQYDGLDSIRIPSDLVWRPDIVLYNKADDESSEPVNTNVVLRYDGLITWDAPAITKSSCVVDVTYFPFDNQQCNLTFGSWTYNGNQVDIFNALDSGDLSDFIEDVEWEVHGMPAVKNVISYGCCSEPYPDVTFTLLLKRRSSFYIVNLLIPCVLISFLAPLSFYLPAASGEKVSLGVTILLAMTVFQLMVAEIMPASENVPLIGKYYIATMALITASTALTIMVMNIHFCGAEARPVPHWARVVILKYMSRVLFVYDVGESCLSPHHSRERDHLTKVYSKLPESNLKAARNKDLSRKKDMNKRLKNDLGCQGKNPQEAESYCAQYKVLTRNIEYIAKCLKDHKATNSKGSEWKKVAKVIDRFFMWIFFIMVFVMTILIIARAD
T1 sequence (Q9GZZ6 25-450): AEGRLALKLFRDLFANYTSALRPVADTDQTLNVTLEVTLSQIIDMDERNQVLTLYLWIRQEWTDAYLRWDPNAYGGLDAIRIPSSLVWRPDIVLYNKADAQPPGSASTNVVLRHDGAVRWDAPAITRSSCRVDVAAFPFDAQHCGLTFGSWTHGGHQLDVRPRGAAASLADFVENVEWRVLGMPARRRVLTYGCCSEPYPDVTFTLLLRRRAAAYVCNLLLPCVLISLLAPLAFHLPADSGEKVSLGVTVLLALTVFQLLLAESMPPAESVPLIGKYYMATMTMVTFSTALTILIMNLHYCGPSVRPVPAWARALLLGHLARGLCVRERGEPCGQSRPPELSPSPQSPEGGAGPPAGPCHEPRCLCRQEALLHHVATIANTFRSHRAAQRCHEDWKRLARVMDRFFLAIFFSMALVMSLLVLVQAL

| Substance | inhibition of HVA calcium currents by globular, ribbon and beads isomers [1] | rat HVA Ca^2+ channel I/Icontrol ± SEM (n) [1] | human α9α10 nAChR I/Icontrol ± SEM (n) [2] | human α7 nAChR I/Icontrol ± SEM (n) [3] |
| --- | --- | --- | --- | --- |
| Pu1.2: native full length Pu1.2, SEQ ID No. 41: G G C C S Y P P C I A N N P L C (GGCCSYPPCIANNPLC; not fully specified; ends and bridges not checked) | found to inhibit HVA calcium currents | 0.73 ± 0.02 (12) | 1.01 ± 0.04 (4) | 0.98 ± 0.03 (6) |
| Pn1.2: native full length Pn1.2, SEQ ID No. 42: G C C S H P P C F L N N P D Y C (GCCSHPPCFLNNPDYC; not fully specified; ends and bridges not checked) | found to inhibit HVA calcium currents | 0.78 ± 0.03 (11) | 0.012 ± 0.001 (4) | 0.006 ± 0.005 (5) |
